Legend:
[1] = test system: MV4-11 (FLT3 ITD+/+ mutant type); assay: In vitro growth inhibition (GI50), MV4-11; format: cell-based, human; conditions: Homo sapiens, MV4-11; Cell lines of leukemia; read-out: GI 50 MV4-11 FLT3 (ITD +/+)
From the text: (§1) 1. Cell Lines and Cell Cultures
(§2) Tumor cell line is an effective cell model for studying the inhibition of tumor cell growth or proliferation in vitro. In the present invention, a representative tumor cell line was selected to determine the cell growth inhibition activity of the present compound. All cell lines used were from ATCC, DSMZ, and the Cell Bank of the Chinese Academy of Sciences. Cell culture conditions and methods were in accordance with the requirements of each cell line. Cells were subcultured in vitro for no more than 3 passages each time, and as required, single-clone purification and identification of cell lines could be carried out.
(§3) The cell culture media used were RPMI1640 (Gibco), MEM (Gibco), McCOY'S5A (Gibco), and IMDM (Gibco). The complete medium was prepared by supplement with 5˜20% fetal calf serum (Gibco), 1% double-antibiotics (10000 units/mL penicillin and 10000 units/mL), 2 mM glutamine or 1 mM sodium pyruvate, respectively.
(§4) The human acute […] monomonocyte leukemia cell line MV4-11 (FLT3 ITD+/+ mutant type, ATCC) was cultured in a complete medium comprising 1×IMDM and 10% FBS. Human acute myeloid leukemia cell line MOLM-13 (FLT3 ITD+/− mutant type, DSMZ), human acute lymphoblastic leukemia cell line RS4; 11 (FLT3 wild type, ATCC), human chronic granulocytic leukemia cell line K562 (FLT3 negative expression, positive expression of BCR-ABL fusion protein, ATCC), human promyelocytic leukemia cell line HL-60 (FLT3 wild type, ATCC), human B lymphoblastic leukemia cell line RAMOS (positive expression of Brutons tyrosine protein kinase, ATCC), human acute myeloid leukemia cell line Kasumi-1 (c-Kit N822K mutant type, ATCC), human acute monocytic leukemia cell line U937 (FLT3 wild-type, ATCC), human acute myeloid leukemia cell line OCI-AML3 (NPMc+ mutant type, ATCC), human acute myeloid leukemia cell line KG-1 (expressing FGFR1OP2-FGFR1 fusion protein, ATCC) were cultured in a complete medium comprising 1×RPMI1640 and 10% FBS, respectively.
(§5) The suspension cells were collected by centrifugation. The supernatant was discarded and the cell pellet was resuspended and counted. Different cell concentrations (5˜10×10^4 cells/mL) were prepared according to the growth cycle of each cell line and then seeded on a 96-well plate (Corning), 100 μL/well. The cells were incubated overnight at 37° C., 5% CO2. The compounds were added to the cells on the second day with 2 wells in parallel. The final concentration of organic solvent shall not exceed 1%. The cells were continually incubated for 3 to 5 days, and then subjected to MTT assay.
(§6) The compound was stored in a concentration of 10 mM at −20° C. and diluted to 2- or 10-fold series prior to use.
(§7) Dojindo CCK8 reagent kit was used as MTT assay. […] FC meter was used as microplate reader.
(§8) For adherent cells, culture medium was removed and immediately replaced with the fresh prepared medium which contains 10% CCK8 reagent (100 μL/well). For the suspension cells, CCK8 was directly added to 10% of the final concentration. The cells were continually incubated for 1˜4 h. […] The experiment was independently repeated 1˜3 times, and subject to biological statistical analysis. 4. Experimental Results
(§9) The initial concentration of the compound was 5,000 nM, then it was serially diluted by 2-fold or 10-fold to 0.01 nM. The GI50 value of each test compound was calculated according to the GI50 assay and calculation method. The experiments were repeated 1 to 3 times, and data were subjected to biological statistical analysis.

[2] = test system: MOLM-13 (FLT3 ITD+/− mutant type); assay: In vitro growth inhibition (GI50), MOLM-13; format: cell-based, human; conditions: Homo sapiens, MOLM-13; Cell lines of leukemia; read-out: GI 50 MOLM-13 FLT3 (ITD+/−)
From the text: as §1, §2, §3, §4, §5, §6, §7, §8, §9

[3] = test system: RS4; 11 (FLT3 wild type); assay: In vitro growth inhibition (GI50), RS4; 11; format: cell-based, human; conditions: Homo sapiens, RS4-11; Cell lines of leukemia; read-out: GI 50 RS4: 11 FLT3 (WT)
From the text: as §1, §2, §3, §4, §5, §6, §7, §8, §9

[4] = test system: K562 (FLT3 negative expression, positive expression of BCR-ABL fusion protein); assay: In vitro growth inhibition (GI50), K562; format: cell-based; conditions: Homo sapiens, Cell lines of leukemia, read-out: GI 50 K562 BCR-ABL
From the text: as §1, §2, §3, §4, §5, §6, §7, §8, §9

[5] = test system: RAMOS (positive expression of Brutons tyrosine protein kinase); assay: In vitro growth inhibition (GI50), RAMOS; format: cell-based; conditions: Homo sapiens, Cell lines of leukemia, read-out: GI 50 Ramos BTK
From the text: as §1, §2, §3, §4, §5, §6, §7, §8, §9

[6] = test system: U937 (FLT3 wild-type); assay: In vitro growth inhibition (GI50), U937; format: cell-based; conditions: Homo sapiens, U-937; Cell lines of leukemia; read-out: GI 50 U937 FLT 3(WT)
From the text: as §1, §2, §3, §4, §5, §6, §7, §8, §9

[7] = test system: Kasumi-1 (c-Kit N822K mutant type); assay: In vitro growth inhibition (GI50), Kasumi-1; format: cell-based; conditions: Homo sapiens, Cell lines of leukemia, read-out: GI 50 Kasumi-1 Kit (N822K)
From the text: as §1, §2, §3, §4
as §5, with “Adherent cells were digested with 0.25% pancreatin-EDTA (Gibco). The suspension” for “The suspension”
(§10) The compound of the present invention and the control compound were dissolved in DMSO (Sigma) respectively, with the purity of more than 98%. The compound was stored in a concentration of 10 mM at −20° C. and diluted to 2- or 10-fold series prior to use.
(§11) Dojindo CCK8 reagent kit was used as MTT assay. THERMO […] FC meter was used as microplate reader.
(§12) For adherent cells, culture medium was removed and immediately replaced with the fresh prepared medium which contains 10% CCK8 reagent (100 μL/well). For the suspension cells, CCK8 was directly added to 10% of the final concentration. The cells were continually incubated for 1˜4 h. When a dark yellow color could be observed in the solvent control wells, the absorbance value at OD450 nm was measured and the cell growth rate was calculated according to the following formula: Cell Growth Rate (%)=100*(T−T0)/(C−T0) T=optical density of drug treatment cell well—optical density of blank control well; T0=optical density of cell well before drug treatment—optical density of blank control well; C=optical density of cell well of solvent control group—optical density of blank control well. The concentration value of 50% inhibition of cell growth (GI50) was calculated according to the drug concentration and cell growth rate curve. […]

[8] = test system: KG-1 (expressing FGFR1OP2-FGFR1 fusion protein); assay: In vitro growth inhibition (GI50), KG-1; format: cell-based; conditions: Homo sapiens; Cell lines of leukemia; read-out: GI 50 KG-1 FGFR1OP 2-FGFR1
From the text: as §1, §2, §3, §4, §5, §6, §7, §8, §9

[9] = test system: HL-60 (FLT3 wild type); assay: In vitro growth inhibition (GI50), HL-60; format: cell-based; conditions: Homo sapiens, Cell lines of leukemia, read-out: GI 50 HL60 FLT3 (WT)
From the text: as §1, §2, §3, §4
as §5, with “Adherent cells were digested with 0.25% pancreatin-EDTA (Gibco). The suspension” for “The suspension”
as §10, §11, §12

[10] = test system: OCI-AML3 (NPMc+ mutant type); assay: In vitro growth inhibition (GI50), OCI-AML3; format: cell-based; conditions: Homo sapiens, OCI-AML-3; Cell lines of leukemia; read-out: GI 50 OCI- AML3 NPMc+
From the text: as §1, §2, §3, §4, §5, §6, §7, §8, §9

Row | Compound | GI50 [1] [µM] | GI50 [2] [µM] | GI50 [3] [µM] | GI50 [4] [µM] | GI50 [5] [µM] | GI50 [6] [µM] | GI50 [7] [µM] | GI50 [8] [µM] | GI50 [9] [µM] | GI50 [10] [µM]
1 | COc1cc2ncn(-c3ccc(NC(=O)Nc4cc(C(C)(C)C)on4)cc3)c2cc1OC [Compound 31, 1-(5-tert-butyl-isoxazol-3-yl)-3-[4-(5,6-dimethoxyl-benzimidazol-1-yl)-phenyl]-urea] | 0.0001 to 0.001 | 0.0001 to 0.001 | 0.1 to 1 | 0.1 to 1 | 0.1 to 1 | > 1 | 0.1 to 1 | > 1 | > 1 | > 1
2 | CCOCCOc1ccc2c(c1)ncn2-c1ccc(NC(=O)Nc2cc(C(C)(C)C)on2)cc1 [Compound 13, 1-(5-tert-butyl-isoxazol-3-yl)-3-{4-[5-(2-ethoxyl-ethoxyl)-benzimidazol-1-yl]-phenyl]-urea] | 0.0001 to 0.001 | 0.0001 to 0.001 | > 1 | > 1 | > 1 | > 1 | > 1 | > 1 | > 1 | > 1
3 | CC(C)(C)c1cc(NC(=O)Nc2ccc(-n3nnc4ccccc43)cc2)no1 [Compound 48, 1-(4-benzotriazol-1-yl-phenyl)-3-(5-tert-butyl-isoxazol-3-yl)-urea] | 0.1 to 1 | 0.1 to 1 | > 1 | > 1 | > 1 | > 1 | > 1 | > 1 | > 1 | > 1
4 | CN1CCN(CCCOc2ccc3c(c2)ncn3-c2ccc(NC(=O)Nc3cc(C(C)(C)C)on3)cc2)CC1 [Compound 19, 1-(5-tert-butyl-isoxazol-3-yl)-3-(4-{5-[3-(4-methyl-piperazin-1-yl)-propoxyl]-benzimidazol-1-yl}-phenyl)-urea] | 0.0001 to 0.001 | 0.0001 to 0.001 | 0.01 to 0.1 | 0.1 to 1 | 0.1 to 1 | > 1 | 0.1 to 1 | 0.1 to 1 | 0.1 to 1 | > 1
5 | CC(C)(C)c1cc(NC(=O)Nc2ccc(-n3cnc4ccccc43)c(Cl)c2)no1 [Compound 38, 1-(4-benzimidazol-1-yl-3-chloro-phenyl)-3-(5-tert-butyl-isoxazol-3-yl)-urea] | 0.1 to 1 | 0.1 to 1 | > 1 | > 1 | > 1 | > 1 | > 1 | > 1 | > 1 | > 1
6 | CC(C)(C)c1cc(NC(=O)Nc2ccc(-n3cnc4ccccc43)nc2)no1 [Compound 42, 1-(6-benzimidazol-1-yl-pyridin-3-yl)-3-(5-tert-butyl-isoxazol-3-yl)-urea] | 0.001 to 0.01 | 0.001 to 0.01 | > 1 | > 1 | > 1 | > 1 | > 1 | > 1 | > 1 | > 1
7 | CC(C)(C)c1cc(NC(=O)Nc2ccc(-n3cnc4cccnc43)cc2)no1 [Compound 50, 1-(5-tert-butyl-isoxazol-3-yl)-3-(4-imidazo[4,5-b]pyridin-3-yl-phenyl)-urea] | 0.0001 to 0.001 | 0.0001 to 0.001 | > 1 | > 1 | > 1 | > 1 | > 1 | > 1 | > 1 | > 1
8 | CCOC(=O)COc1ccc2c(c1)ncn2-c1ccc(NC(=O)Nc2cc(C(C)(C)C)n[nH]2)cc1 [Compound 88, ethyl (1-{4-[3-(5-tert-butyl-2H-pyrazol-3-yl)-carbamido]-phenyl}-H-benzimidazol-5-yloxy)-acetate] | 0.001 to 0.01 | 0.001 to 0.01 | > 1 | > 1 | > 1 | > 1 | > 1 | > 1 | > 1 | > 1
9 | CC(C)(C)c1cc(NC(=O)Nc2ccc(-n3cnc4cc(Oc5nsnc5N5CCOCC5)ccc43)cc2)[nH]n1 [Compound 95, 1-(5-tert-butyl-2H-pyrazol-3-yl)-3-{4-[5-(4-morpholin-4-yl-[1,2,5]thiadiazol-3-yloxy)-benzimidazol-1-yl]-phenyl}-urea] | 0.001 to 0.01 | 0.001 to 0.01 | > 1 | > 1 | > 1 | > 1 | > 1 | > 1 | > 1 | > 1
10 | CCOC(=O)COc1ccc2c(c1)ncn2-c1ccc(NC(=O)n2nc(C(C)(C)C)cc2N)cc1 [Compound 124, ethyl (1-{4-[(5-amino-3-tert-butyl-pyrazol-1-carbonyl)-amino]-phenyl}-1H-benzimidazol-5-yloxy)-acetate] | > 1 | > 1 | > 1 | > 1 | > 1 | > 1 | > 1 | > 1 | > 1 | 0.1 to 1
